The text below walks through data of article PMC11016601, “Exploring the bioaccessibility and intestinal absorption of major classes of pure phenolic compounds using in vitro simulated gastrointestinal digestion” (Heliyon, 2024).

Details of series [1]: method as in earlier work. Particulars: cited from earlier work.
Series [2] is described as follows: In vitro simulated gastrointestinal digestion (SGD, INFOGEST 2.0): concentration and bioaccessibility by UHPLC-DAD-MSn. The conditions noted are these: for Bioaccessibility (%), initial solution (IS): reference. How it is done:
Preliminary solubility tests in different solvents, namely water, sodium phosphate buffer (26.8 mM, pH 6.1), ethanol, and also a mixture of ethanol with both water and sodium phosphate buffer, were carried out for each PC (data not shown), to prevent erroneous data arising from compounds precipitation. Ethanol percentages used in these preliminary solubility tests were 10, 15, and 20% (v/v).
Each PC solubilized in ethanol:water (15% v/v) was then submitted to an in vitro SGD (INFOGEST 2.0), according to a standardized protocol (Fig. 2). In order to determine whether the interaction between the compounds and enzymes led to an underestimation of their content, each PC solution was submitted to the same digestion procedure, replacing the enzyme solutions with water, which were designed as controls, henceforth this will be the term used. Each sample and control were submitted to three independent in vitro digestion simulations, and after each digestion phase, a sample/control was collected and further analyzed and quantified by UHPLC-DAD-MSn.
Mouth digestion of each PC solution (1 mL) was diluted in 0.8 mL of simulated salivary fluid (SSF) and α-amylase (75 U mL-1). Then, the mixture was incubated for 2 min at 37 °C under agitation (200 rpm). In order to start gastric digestion, pH was adjusted to 3.0 using 1 M aqueous HCl and then, a pepsin solution (2000 U mL-1) and simulated gastric fluid (SGF) were added. Subsequently, the mixture was incubated for 2h, at 37 °C and 130 rpm orbital agitation for the stomach digestion. Finally, the small intestine digestion simulation was performed after pH adjustment to 7.0 using 1 M aqueous […] and the addition of pancreatin (100 U mL-1), bile salts solution (10 mM) and simulated intestinal fluid (SIF), during 2 h, at 37 °C with 45 rpm orbital agitation. Natural small intestine absorption was also simulated, by placing the remaining sample in a dialysis membrane, and immersed in distilled water overnight at room temperature.
At each sampling point, an aliquot (0.5 mL) from each of the three replicates was collected. The enzymatic activity was stopped immediately by adding pure methanol to each aliquot (1:1, v/v) to promote enzyme precipitation and subsequently centrifuged at 10 000 g and 4 °C for 5 min. The supernatants were filtered with a 0.2 μm nylon filter. To determine the concentration of each sample or control, it was considered the following dilution factor – 1:2, 1:4 and 1:8 for oral, gastric and intestinal digestion phase, respectively.
The bioaccessibility percentage (B%) of each PC was calculated using equation (1):(1) B(%)=[DS]/[IS]×100 where IS is the initial concentration of PCs in ethanol:water (15% v/v) solutions, DS is the concentration of each collected sample or control (without enzymes).
The values of B% and IA% were the average of the three replicates performed, with the calculated standard deviation.
PCs were analyzed in a UHPLC system equipped with a variable loop Accela autosampler (set at 16 °C), an Accela 600 LC pump, and an Accela 80 Hz photo diode array detector (DAD) (Thermo Fisher Scientific, San Jose, CA, USA). Each sample was prepared in methanol:water (1:1, v/v) and filtered through a 0.2 μm nylon syringe filter. […] The mobile phase was composed of acetonitrile (A) and water:acetonitrile (99:1, v/v) (B), both with 0.1 % of formic acid. The gradient elution was performed as follows: 0–1min: 99% B; 1–17 min: 99-73% B, 17–20 min: 73-0% B, 20–25 min: 0–99% B, followed by re-equilibration of the column at 99% B for 4 min.

Where [3] appears, read: controls (without enzymes), gastric phase.
Setting [4] is: controls (without enzymes), initial solution.
Where [5] appears, read: controls (without enzymes), intestinal phase.
Setting [6] is: controls (without enzymes), oral phase.

Where “and” joins values, the source holds several entries; their conditions need not be identical. Identical values can stand only once. Marks after values point to notes of the source that are not given here.

In the case of `O=c1cc(-c2ccc(O)cc2)oc2cc(O)cc(O)c12` [APG, apigenin], in series [1], the “bioaccessible fraction after intestinal digestion relative to the gastric phase” value is given as 2 fold. The “Bioaccessibility (%), oral phase (O)” value in series [2] (2 min) is listed as 127.10 ± 1.17 ^a,b %; in series [2] (setting [6]), 134.98 ± 8.17 ^b %; in series [2] (samples with enzymes, oral phase), 127.10%. The “Bioaccessibility (%), gastric phase (G)” value in series [2] (setting [3]) was 15.20% and 15.20 ± 3.04 ^d %; in series [2] (samples with enzymes, gastric phase), 27.60% and 27.60 ± 5.02^ c %. In addition, the “Concentration, gastric phase (G)” value in series [2] (setting [3]) is 1420 ± 280 ng/mL; in series [2] (samples with enzymes, after gastric digestion pH 3.0) it was 2580 ± 470 ng/mL. In addition, the “Concentration, initial solution (IS)” value in series [2] (setting [4]) is 9330 ng/mL; in series [2] (samples, initial ethanol:water (15% v/v) solution) it was 9330 ng/mL. The “Bioaccessibility (%), initial solution (IS)” value in series [2] (setting [4]) is reported as 100 ^c %; in series [2] (samples, initial solution), 100 ^b %. For the same compound, the “Bioaccessibility (%), intestinal phase (I)” value is 158.32 ± 5.05 ^a % in series [2] (setting [5]); 147.20% and 147.20 ± 13.05 ^a % in series [2] (samples with enzymes, intestinal phase). The “Concentration, intestinal phase (I)” value in series [2] (setting [5]) was 14780 ± 470 ng/mL; in series [2] (samples with enzymes, after intestinal digestion pH 7.0) it was 13740 ± 1220 ng/mL. Moreover, the “Concentration, oral phase (O)” value is 12600 ± 760 ng/mL in series [2] (setting [6]) and 11860 ± 110 ng/mL in series [2] (samples with enzymes, after oral digestion).
